This is an account of results in patent US8558011B2, “Cold menthol receptor-1 antagonists” (Janssen Pharmaceutica, NV, priority 2010, dated 2013).

SMILES strings stand for the structures.

As usually defined, the IC50 is the point on the concentration scale where inhibition reaches its midpoint. Read a high IC50 as weaker potency.

The target of experiment [1] is T1, canine TRPM8 (Canis lupus familiaris, UniProt Q1A7N1).
T1 construct: expressed in transfected cells
Put plainly: In Vitro Canine TRPM8 Functional Assay (Ca2+-sensitive fluorescent dye, icilin activation, FLIPR/FDSS). The class given is cell-based. Conditions: HEK293 cells stably expressing canine TRPM8, icilin activation; for % I (0.5 μM): compound at 0.5 μM; for IC50: eight-point dose-response; for % I (1 μM): compound at 1 μM. On the procedure: The functional activity of compounds of Formula (I) was determined by measuring changes in intracellular calcium concentration using a Ca^2+-sensitive fluorescent dye. The changes in fluorescent signal were monitored by a fluorescence plate reader, either a FLIPR™ (Molecular Devices) or FDSS (Hamamatsu).
HEK293 cells stably expressing canine TRPM8 were routinely grown as monolayers in Dulbecco's minimum essential medium supplemented with 10% FBS, 1 mM L-glutamine, 100 units/mL penicillin, 100 ug/mL streptomycin and 400 μg/mL G418. Cells were maintained in 5% CO2 at 37° C. At 24 hrs prior to assay, cells were seeded in clear-base poly-D-lysine coated 384-well plates (BD Biosciences, NJ, USA) at a density of 5,000 cells per well in culture medium and grown overnight in 5% CO2 at 37° C. On assay day, growth media was removed and cells were loaded with Calcium 3 Dye (Molecular Devices) for 35 min at 37° C., under 5% CO2 and then for 25 min at room temperature and atmosphere. Subsequently, cells were tested for agonist-induced increases in intracellular Ca^2+ levels using FLIPR™ or FDSS. Cells were challenged with a compound of Formula (I) (at varying concentrations) and intracellular Ca^2+ was measured for 5 min prior to the addition of icilin to all wells to achieve a final concentration which produces approximately an 80% maximal response.
Basal FI was subtracted prior to normalizing data to percent of maximal response. Curves were generated using the average of quadruplicate wells for each data point, were analyzed using nonlinear regression of either sigmoidal dose response or sigmoidal dose response (variable slope). Finally, the EC50 and IC50 values were calculated with the best-fit dose curve determined by GraphPad Prism.

For experiment [2], the system named is CFA-induced Paw Radiant Heat Hypersensitivity. Put plainly: CFA-induced paw radiant heat hypersensitivity. In kind it is in vivo, rat. As to the method:
Intraplantar injection of Complete Freund's Adjuvant (CFA) in rodents results in a long-lasting inflammatory reaction, characterized by a pronounced hypersensitivity to both thermal and mechanical stimuli. This hypersensitivity peaks between 24-72 hours following injection and can last for several weeks. […] This paradigm also may be conducted with a multiple dosing or a prophylactic dosing regime designed to alter the course of hyperalgesia development. This test predicts the analgesic, anti-allodynic and antihyperalgesic effect of numerous effective clinical agents, including NSAIDS such as acetaminophen, aspirin and ibuprofen, and opioids such as morphine.
Each rat was placed in a test chamber on a warm glass surface and allowed to acclimate for approximately 10 minutes. A radiant thermal stimulus (beam of light) was then focused through the glass onto the plantar surface of each hind paw in turn. The thermal stimulus was automatically shut off by a photoelectric relay when the paw was moved or when the cut-off time was reached (20 seconds for radiant heat at ˜5 Amps). An initial (baseline) response latency to the thermal stimulus was recorded for each animal prior to the injection of CFA. Twenty-four hours following intraplantar CFA injection, the response latency of the animal to the thermal stimulus was then re-evaluated and compared to the animal's baseline response time. […] Immediately following the post-CFA latency assessment, test compound or vehicle (usually Solutol, hydroxypropyl methylcellulose, hydroxypropyl beta-cyclodextrin or PEG-400) was administered i.p. or p.o. to rats. […] The percent reversal (% R) of hypersenstivitiy was calculated according to the following formula: % Reversal=(Treatment Response−CFA Response)/(Baseline Response−CFA Response)×100.

T1 sequence (Q1A7N1 1-1104): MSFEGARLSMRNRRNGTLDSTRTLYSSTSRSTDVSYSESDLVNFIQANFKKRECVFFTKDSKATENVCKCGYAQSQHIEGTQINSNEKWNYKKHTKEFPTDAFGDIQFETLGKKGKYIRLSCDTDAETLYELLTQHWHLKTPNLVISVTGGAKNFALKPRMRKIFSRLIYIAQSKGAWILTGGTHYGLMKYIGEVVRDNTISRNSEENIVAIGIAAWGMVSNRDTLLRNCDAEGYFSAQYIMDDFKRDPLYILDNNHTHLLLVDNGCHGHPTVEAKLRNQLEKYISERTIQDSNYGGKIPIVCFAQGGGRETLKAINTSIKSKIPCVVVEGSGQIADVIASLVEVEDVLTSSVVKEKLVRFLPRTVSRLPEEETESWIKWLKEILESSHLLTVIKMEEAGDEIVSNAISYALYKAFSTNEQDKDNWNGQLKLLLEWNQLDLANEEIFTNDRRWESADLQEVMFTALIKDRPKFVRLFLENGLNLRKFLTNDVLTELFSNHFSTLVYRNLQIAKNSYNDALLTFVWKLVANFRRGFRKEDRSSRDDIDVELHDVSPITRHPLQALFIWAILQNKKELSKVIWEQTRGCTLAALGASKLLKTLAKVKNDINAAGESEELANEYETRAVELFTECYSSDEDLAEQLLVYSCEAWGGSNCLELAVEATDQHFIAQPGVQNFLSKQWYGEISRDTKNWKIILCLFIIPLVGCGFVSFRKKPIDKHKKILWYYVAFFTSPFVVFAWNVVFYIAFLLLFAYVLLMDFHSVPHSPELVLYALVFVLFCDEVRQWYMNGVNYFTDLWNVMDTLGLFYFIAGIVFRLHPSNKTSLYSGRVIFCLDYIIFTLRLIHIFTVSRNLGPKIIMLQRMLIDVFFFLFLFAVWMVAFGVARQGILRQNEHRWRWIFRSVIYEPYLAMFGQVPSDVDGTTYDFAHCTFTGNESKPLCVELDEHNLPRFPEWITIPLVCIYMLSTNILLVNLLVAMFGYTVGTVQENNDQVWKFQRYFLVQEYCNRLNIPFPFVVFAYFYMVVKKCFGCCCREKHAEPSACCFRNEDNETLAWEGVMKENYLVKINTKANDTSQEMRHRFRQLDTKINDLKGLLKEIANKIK

As to `CCOP(=O)(OCC)C(Cc1cccc(Cl)c1)c1sc2ccccc2c1Br` (stereo not shown) [Cpd 137, [1-(3-Bromo-benzo[b]thiophene-2-yl)-2-(3-chloro-phenyl)-ethyl]-phosphonic acid diethyl ester], in experiment [1], the “% I (0.5 μM)” value was 102%. Further, the “% Reversal” value in experiment [2] (30 mg/kg p.o., time 1 (h)) turned out to be 34%.

As for `CCOP(=O)(OCC)C(Cc1ccc(F)c(Cl)c1)c1sc2ccccc2c1Br` (stereo not shown) [Cpd 244], in experiment [1], the IC50 turned out to be 28 nM and the “% I (0.5 μM)” value stood at 103%. For the same compound, the “% Reversal” value in experiment [2] (30 mg/kg p.o., time 2 (h)) amounted to 45%.

On to `CCOP(=O)(OCC)C(Cc1ccc(F)cc1)c1sc2ccccc2c1Br` (stereo not shown) [Cpd 238, [1-(3-Bromo-benzo[b]thiophen-2-yl)-2-(4-fluoro-phenyl)-ethyl]-phosphonic acid diethyl ester], for which the “% I (0.5 μM)” value in experiment [1] is 104%. In experiment [2] (30 mg/kg p.o., time 2 (h)), the “% Reversal” value is 56%.

With `CC(C)OP(=O)(OC(C)C)C(Cc1ccc(F)c(F)c1)c1sc2ccccc2c1Cl` (stereo not shown) [Cpd 12, [1-(3-Chloro-benzo[b]thiophen-2-yl)-2-(3,4-difluoro-phenyl)-ethyl]-phosphonic acid diisopropyl ester], the “% I (1 μM)” value in experiment [1] is 100%. In experiment [2] (30 mg/kg i.p., time 1 h), the “% Reversal” value is 105%.

Consider `CCOP(=O)(OCC)C(Cc1ccc(F)c(F)c1)c1sc2ccccc2c1Br` (stereo not shown) [Cpd 127, [1-(3-Bromo-benzo[b]thiophen-2-yl)-2-(3,4-difluoro-phenyl)-ethyl]-phosphonic acid dethyl ester], for which the “% I (1 μM)” value in experiment [1] was 100%. Further, the “% Reversal” value in experiment [2] (30 mg/kg p.o., time 1 (h)) is 88%. Consider `CC(C)OP(=O)(OC(C)C)[C@H](Cc1ccc(F)c(F)c1)c1sc2ccccc2c1Br` [Cpd 235, (R)-[1-(3-Bromo-benzo[b]thiophen-2-yl)-2-(3,4-difluoro-phenyl)-ethyl]-phosphonic acid diisopropyl ester], for which, in experiment [1], the “% I (0.5 μM)” value is recorded as 56%. As to `CCOP(=O)(Cc1cc2ccccc2s1)OCc1ccccc1C` (stereo not shown) [Cpd 104, Benzo[b]thiophen-2-ylmethyl-phosphonic acid ethyl ester 2-methyl-benzyl ester], in experiment [1], the “% I (1 μM)” value was found to be 53%.

For `CCOP(=O)(OCC)C(Cc1ccc(F)c(C(F)(F)F)c1)c1sc2ccccc2c1Cl` (stereo not shown) [Cpd 298], in experiment [1], the IC50 turned out to be 85 nM and the “% I (0.5 μM)” value is listed as 99%. For the same compound, the “% Reversal” value in experiment [2] (30 mg/kg p.o., time 1 (h)) came out at 20%.

Take `CCOP(=O)(OCC)C(Cc1ccc(C(F)(F)F)cc1F)c1sc2ccccc2c1Br` (stereo not shown) [Cpd 150]: in experiment [1], 90 nM corresponded to half-maximal inhibition (IC50) and the “% I (0.5 μM)” value is 103%. The matching figures for `CCOP(=O)(OCC)C(Cc1cc(C(F)(F)F)cc(C(F)(F)F)c1)c1sc2ccccc2c1Cl` (stereo not shown) [Cpd 282]: 235 nM and 100%. On to `CCOP(=O)(OCC)C(Cc1cccc(N)c1)c1sc2ccccc2c1Br` (stereo not shown) [Cpd 318, [2-(3-Amino-phenyl)-1-(3-bromo-benzo[b]thiophen-2-yl)-ethyl]-phosphonic acid diethyl ester], for which the “% I (0.5 μM)” value in experiment [1] stood at 100%. Turning to `CCOP(=O)(OCC)C(Cc1ccc(F)c(F)c1)c1sc2c(F)cccc2c1C` (stereo not shown) [Cpd 8, [2-(3,4-Difluoro-phenyl)-1-(7-fluoro-3-methyl-benzo[b-]thiophene-2-yl)-ethyl]-phosphonic acid diethyl ester], in experiment [1], the “% I (1 μM)” value is 100%.

For the compound `CCOP(=O)(OCC)C(Cc1ccc(S(=O)(=O)C(F)(F)F)cc1)c1sc2ccccc2c1Cl` (stereo not shown) [Cpd 300], in experiment [1], the IC50 was 89 nM and the “% I (0.5 μM)” value came to 103%.

For `CCOP(=O)(OCC)C(Cc1cccc(Cl)c1Cl)c1sc2ccccc2c1C` (racemic) [Cpd 35], in experiment [1], the IC50 came to 125 nM and the “% I (1 μM)” value was found to be 100%. The matching figures for `CCOP(=O)(OCC)C(Cc1ccccc1C)c1sc2ccccc2c1C` (racemic) [Cpd 26]: 108 nM and 100%.

Regarding `CCOP(=O)(OCC)C(Cc1ccc(SC)cc1)c1sc2ccccc2c1Cl` (stereo not shown) [Cpd 299], in experiment [1], inhibition was half-maximal at 141 nM (IC50) and the “% I (0.5 μM)” value was determined as 101%. Further, in experiment [2] (30 mg/kg p.o., time 1 (h)), the “% Reversal” value is 23%. As for `CCOP(=O)(OCC)C(Cc1ccc(Cl)c(Cl)c1)c1cc2ccccc2s1` (stereo not shown) [Cpd 78, [1-Benzo[b]thiophen-2-yl-2-(3,4-dichloro-phenyl)-ethyl]-phosphonic acid diethyl ester], in experiment [1], the “% I (1 μM)” value is reported as 95%.

Turning to `CCOP(=O)(OCC)C(Cc1cccc(Cl)c1F)c1sc2ccccc2c1Br` (stereo not shown) [Cpd 143], in experiment [1], it took 67 nM to reach half-maximal inhibition (IC50) and the “% I (0.5 μM)” value was 101%.

In the case of `CCOP(=O)(OCC)C(Cc1ccc(F)cc1Cl)c1sc2ccccc2c1C` (racemic) [Cpd 27], in experiment [1], the IC50 is 110 nM and the “% I (1 μM)” value is reported as 99%. As to `CCOP(=O)(OCC)C(Cc1cccc(C(F)(F)F)c1Cl)c1sc2ccccc2c1Cl` (stereo not shown) [Cpd 280], in experiment [1], the IC50 turned out to be 227 nM and the “% I (0.5 μM)” value amounted to 101%. In the case of `CC(C)OP(=O)(OC(C)C)C(Cc1ccc(Cl)cc1)c1sc2ccccc2c1Br` (stereo not shown) [Cpd 288], in experiment [1], half-maximal inhibition (IC50) was put at 65 nM and the “% I (0.5 μM)” value amounted to 103%.

For `CCOP(=O)(OCC)C(C)(Cc1ccc(F)c(F)c1)c1sc2ccccc2c1C` (stereo not shown) [Cpd 79, [2-(3,4-Difluoro-phenyl)-1-methyl-1-(3-methyl-benzo[b]-thiophen-2-yl)-ethyl]-phosphonic acid diethyl ester], the “% I (1 μM)” value in experiment [1] is given as 88%. With `CCOP(=O)(OCC)C(Cc1cccc(Cl)c1)c1sc2ccccc2c1Cl` (stereo not shown) [Cpd 290], in experiment [1], the IC50 is 115 nM and the “% I (0.5 μM)” value came out at 103%.
